These results are taken from a melting point compilation (Tetko et al.; mined from patent text by program, amines drawn as free bases though some values may be those of a salt).

As to `COCCNC(=O)c1ccc(C)c(-n2c(C)cc(OCc3ccc(F)cc3CNC(=O)Nc3cc(C(C)(C)C)nn3-c3ccc(Cl)c(O)c3)c(Cl)c2=O)c1`, the melting point – broadly, the temperature, or range, at which the solid turns liquid – is 186 to 187 °C.
The same measure for `O=C(NCC1CCN(CC2(C(=O)O)CCCCC2)CC1)N1C(=O)C2(CCCC2)c2ccccc21`: 160 °C; for `N#CC1=C(c2cccs2)Nc2n[nH]cc2C1c1cccc2ccccc12` (centres undefined): 214 °C.
The same measure for `COC(=O)c1cc(NC(=O)c2cc(Br)ccc2Cl)ccc1-n1nc(C(F)(F)F)cc1C(F)(F)F`: 75 to 76 °C.
The same measure for `CS(=O)(=O)Nc1cc2occ(C(=O)Nc3nnn[nH]3)c(=O)c2cc1Oc1ccccc1`: more than 250 °C; for `FC(F)(F)c1ccc(CN2CC3(COc4ccc(-c5ccncc5)cc43)c3ccccc32)o1` (centres undefined): 108 to 110 °C.
Take `NC(=O)NCNC(N)=O`: the melting point was more than 270 °C.
As for `Cc1cc(C)c(C(=O)P(=O)(C(=O)c2c(C)cc(C)cc2C)c2ccccc2)c(C)c1`, the melting point fell in the range of 130 to 131 °C.
The same measure for `O=C(CCCCCCNC(=O)C(=O)c1cn2c3c(cccc13)CCC2)NOC1CCCCO1` (centres undefined): 140 to 142 °C; for `c1ccc(Cn2c3ccccc3c3cc(-c4nc(C5CC5)no4)sc32)cc1`: 140 to 141 °C; for `C[Si](C)(C)OCCOC(=O)c1ccccc1S(N)(=O)=O`: 72 to 76 °C.
The same measure for `O=C(O)c1cccc2cc(-c3ccccc3)oc12`: 212 to 214 °C.
The same measure for `CC(C)(C)OC(=O)N1CCC(Oc2ccc(-c3ccc(=O)[nH]n3)c(F)c2)CC1`: 117 to 119 °C; for `CCCc1nc(C(O)C(C)(C)C)c(C(N)=O)n1Cc1ccc(-c2ccccc2-c2nnn[nH]2)cc1` (centres undefined): 174 to 176 °C; for `C[C@@H](CSC(F)(F)C(F)F)[C@](O)(Cn1cncn1)c1ccc(Cl)cc1Cl`: 61 to 63 °C.
In turn, `Cc1ccc(-c2ncc(N(C)CCCCO)nc2-c2ccc(C)cc2)cc1` returned a melting point of 94 to 96 °C.
The same measure for `COc1nc(C)cnc1NS(=O)(=O)c1cccnc1-c1ccc(I)cc1`: 180 to 183 °C; for `CCOC(=O)C(=Cc1ccccc1[N+](=O)[O-])C(=O)C(OCC)OCC`: 66 to 67.5 °C; for `C#CCOc1cc(-c2nn(C)c(S(C)(=O)=O)c2C)c(F)cc1Cl`: 123 to 124 °C.
The molecule `CC(=O)Oc1ccc2cccc(O)c2n1` returned a melting point of 240 to 241 °C.
The same measure for `C#Cc1cn(-c2c(Cl)cc(C(F)(F)F)cc2Cl)c2ccccc12`: 120 to 122 °C.
Turning to `Cc1c(NC(=O)c2ccc(-c3ccc4c(c3)CCO4)cc2F)ccc2cc(CN3CCCCC3)cnc12`, the melting point was in the range of 202 to 203 °C.
The same measure for `Nc1ccc2ccc(Oc3cccnc3)nc2n1`: 178 °C.
`CN(C(=O)c1ccc(C(C)(C)C)cc1)C1N(C)C(c2ccc(F)cc2)=NC1(C(F)(F)F)C(F)(F)F` (centres undefined) registered a melting point of 129 to 130 °C.
The same measure for `O=C(NCc1ccncc1)c1cc2ccnc(Cl)c2[nH]1`: more than 340 °C; for `CCC1CCCCN1C(=O)C=Cc1c(-c2cccc(NC)c2)nn2ccccc12` (centres undefined): 135 to 141 °C; for `CCOc1ccc(C(O)(C(F)(F)F)C(F)(F)Cl)cc1` (centres undefined): 84 to 86 °C.
The same measure for `O=C(Cl)c1cc2n(c1)CCc1ccccc1C2=O`: 147 °C.
The molecule `BrCc1noc2c1ccc1ccccc12` yielded a melting point of 100 to 103 °C.
The same measure for `COc1ccc(F)cc1OCCCl`: 35 to 38 °C; for `Cc1c(C)c2c(c(C)c1Br)C(c1ccccc1)CO2` (centres undefined): 107 to 108 °C.
In turn, `COc1ccc(C)cc1NC(=O)Nc1ccc(N2CCN(C(=O)Nc3ccc(CCO)cc3C)CC2)cc1` showed a melting point of 119 to 121 °C.
In the case of `CC(C)(C)OC(=O)N[C@@H](COS(C)(=O)=O)c1ccccc1`, the melting point fell in the range of 108 to 109 °C.
Molecule `Brc1cncc(-c2ccccc2Oc2ccccc2)c1` showed a melting point of 109 °C.
